# Several values for one entry are separate records, joined by “and”; a condition that tells them apart may be missing. Equal values may be shown once. Ends that are not written are not given here.
# Experiments:
# Pharmacokinetics assay = format: in vivo, mouse; details: 10 mg/kg
# Protocol: Blood samples were obtained at 0, 0.17, 0.33, 0.5, 0.67, 0.83, 1, 2, 4, 6, 8, 10, 12, and 24 h after intraperitoneally injected administration of FAM-GLUP. These blood samples were then allowed to coagulate at room temperature for 4 h, and then were subjected to centrifugation at 3000 × g at 4 °C for 10 min in order to separate the plasma. The plasma samples were analyzed using an Ultra Performance Liquid Chromatography system (UPLC, Waters, Milford, MA). Pharmacokinetic parameters were calculated using Phoenix^TM WinNonlin® software (version 6.1.0.173; Pharsight Corp., Mountain View, CA).
# HGC-27 xenograft tumors = assay: HGC-27 xenograft tumor formation assay; format: in vivo, mouse; parameters: Tumor volume, GLUP+ / Tumor volume, GLUP++: unit not given here
# Source text: Mice used in this study were from SLAC Laboratory Animal (Shanghai, China), and included 4-week-old BALB/c nude mice (female) and 8-week-old C57BL/6J mice (male and female). Tumors were allowed to grow to an average size of ~60 mm^3 and then the mice were randomly allocated to groups of 5–6 animals. No blinding was used in the treatment schedules for these experiments since the different treatments were identified by different marks on the tail. Based on our previous experience, 5–6 animals per group would provide statistically significant data while keeping the number of animals used to a minimum. Tumor size was determined by taking caliper measurements of tumor length, width and depth; tumor volume was calculated as 0.5236 × length × width × depth (mm^3).
# Healthy female BALB/c nude mice were maintained in pathogen-free conditions to which they were allowed to acclimate for 1 week before being used. For the tumor formation assay, tumor cells (1 × 10^6) were injected into the respective flanks of the mice. Mice in which tumors were detected with an average size of ~60 mm^3 were biweekly administered 1 or 5 mg/kg GLUP via subcutaneous injection. These mice were sacrificed after 4 weeks, and tumor volumes were then measured.
substance,measurement,setting,value
RRVCVHFHFSLSLR-NH2 (C-terminus assumed) [glup],half-life,"Pharmacokinetics assay; mouse peripheral blood/plasma, FAM-GLUP intraperitoneal, sampling 0–24 h, UPLC, WinNonlin",over 4 h
same,"plasma levels of GLUP, max","Pharmacokinetics assay; mouse, as read by Referee #1 from Supp. Fig. 6K of the submitted version",around 0.15 µg/ml
same,Growth of xenografted tumors,HGC-27 xenograft tumors; 1 or 5 mg/kg GLUP,inhibited growth of xenografted tumors in a dose-dependent manner
same,"Tumor volume, GLUP+","HGC-27 xenograft tumors; nude mice, 1 mg/kg GLUP s.c. biweekly, individual mice, n = 5 (source data Fig 7E), 1 mg/kg",0.858 and 0.629 and 0.519 and 0.753 and 0.732
same,"Tumor volume, GLUP++","HGC-27 xenograft tumors; nude mice, 5 mg/kg GLUP s.c. biweekly, individual mice, n = 5 (source data Fig 7E), 5 mg/kg",0.345 and 0.321 and 0.256 and 0.423 and 0.503

# — publication PMC11574045, “A cofactor-induced repressive type of transcription factor condensation can be induced by synthetic peptides to suppress tumorigenesis” (The EMBO Journal, 2024)
